Source: patent publication US10882838B2, “Cannabinergic compounds and uses thereof” (Northeastern University, priority 2012, dated 2021)
Where two headings read alike, the source gives them in different places.

Tests used:
[1] = molecular target: mCB2 receptor (Mus musculus (Mouse), UniProt P47936); experiment: mCB2 competition-equilibrium binding with [3H]CP-55,940, membranes of HEK293 cells expressing mCB2
Procedure: (§1) HEK293 cells expressing hCB1 or hCB2 or mCB2 receptor are used for membrane preparations according to Abadji et al. The resulting pellet is resuspended in 10 mM Tris-chloride, pH 7.4, with 5 mM MgCl2 and 2 mM EDTA (TME), rapidly frozen in liquid nitrogen and stored at −80° C. for no longer than two months. Protein content is assayed by using the Bio-Rad protein assay according to the manufacturer's protocol.
(§2) All the cannabinoids discussed in this invention are tested for their ability to bind to CB1 and CB2 receptors using membranes from rat brain or HEK293 cells expressing either mCB2 or hCB2, respectively via competition-equilibrium binding using [^3H]CP-55,940. Results are analyzed using nonlinear regression to determine ligand IC50 (Prism by GraphPad Software, Inc.), and Ki values are calculated from the IC50. IC50 and Ki values are determined from at least three independent experiments.

[2] = molecular target: hCB2 receptor (Homo sapiens (Human), UniProt P34972); experiment: hCB2 competition-equilibrium binding with [3H]CP-55,940, membranes of HEK293 cells expressing hCB2
Procedure: as §1, §2

[3] = Stability in plasma (half-life); type: in vitro ADME, rat or monkey; details: method: 200 μM in plasma, 37°; species of plasma not given
Procedure: The designed compounds carry a side chain that is susceptible to plasma esterase activity, inviting their rapid deactivation. Thus, it is important to characterize the rate of compound metabolism in isolated rat or monkey plasma. As a preliminary predictor of oral stability, this assay will also be done in buffers at pH 2 (to emulate the stomach) and pH 7.4 (physiological pH). Compounds (10 mM in DMSO) are diluted in plasma, acetonitrile or buffer to a concentration of 200 μM and incubated in a 37° shaking water bath for 2 hours. Samples are taken periodically, diluted 1:4 with acetonitrile and centrifuged to precipitate protein. The resulting supernatant is analyzed by HPLC to predict expected in vivo plasma half-lives.

[4] = molecular target: CB1 receptor (Rattus norvegicus (Rat), UniProt P20272); experiment: rCB1 competition-equilibrium binding with [3H]CP-55,940, rat brain membranes
Procedure: Frozen rat brains (CB1 source) are obtained from Pel-Freeze Biologicals (Rogers, Ak.) and stored at −80° C. until use. Membranes are prepared according to the method described by Dodd et al. and used in our laboratory as reported.
as §2

[5] = background statement, up to; cited from earlier work
[6] = background statement; cited from earlier work
[7] = background statement; cited from earlier work; remark: listed apart in the source
[8] = HEK293 cells expressing mCB2, [3H]CP-55,940, read-out: mCB2 Ki
[9] = HEK293 cells expressing hCB2, [3H]CP-55,940, read-out: hCB2 Ki
[10] = rat brain membranes, [3H]CP-55,940, read-out: rCB1 Ki

SMILES	Ki [1, 8]	Ki [2, 9]	half-life at 200 μM [3]	Ki [4, 10]	Ki [1]	Ki [2]	Ki [4]	slow and erratic absorption [5]	clog P [6]	protein binding [7]
CCCCOC(=O)[C@H](C)c1cc(O)c2c(c1)OC(C)(C)[C@@H]1CC=C(C)C[C@@H]21 [Compound 1.14, (R)-butyl 2-((6aR,10aR)-1-hydroxy-6,6,9-trimethyl-6a,7,10,10a-tetrahydro-6H-benzo[c]chromen-3-yl)propanoate]	1.4 nM	1.4 nM	7 min	0.9 nM	–	–	–	–	–	–
CCCCOC(=O)[C@@H](C)c1cc(O)c2c(c1)OC(C)(C)[C@@H]1CC=C(C)C[C@@H]21 [Compound 1.16, (S)-butyl 2-((6aR,10aR)-1-hydroxy-6,6,9-trimethyl-6a,7,10,10a-tetrahydro-6H-benzo[c]chromen-3-yl)propanoate]	1.3 nM	1.5 nM	6 min	2.4 nM	–	–	–	–	–	–
CC1=CC[C@@H]2[C@@H](C1)c1c(O)cc(C3(C(=O)OCCCCBr)CCC3)cc1OC2(C)C [Compound 1.18, 4-bromobutyl 1-((6aR,10aR)-1-hydroxy-6,6,9-trimethyl-6a,7,10,10a-tetrahydro-6H-benzo[c]chromen-3-yl)cyclobutanecarboxylate]	3.7 nM	0.7 nM	50 min	0.3 nM	–	–	–	–	–	–
CC1=CC[C@@H]2[C@@H](C1)c1c(O)cc(C3(C(=O)OCCCCC#N)CCC3)cc1OC2(C)C [Compound 1.19, 4-cyanobutyl 1-((6aR,10aR)-1-hydroxy-6,6,9-trimethyl-6a,7,10,10a-tetrahydro-6H-benzo[c]chromen-3-yl)cyclo butanecarboxylate]	1.5 nM	1.8 nM	107 min	0.9 nM	–	–	–	–	–	–
CCCCOC(=O)C1(c2cc(O)c3c(c2)OC(C)(C)[C@@H]2CC=C(C)C[C@@H]32)CCC1 [Compound 1.20, butyl 1-((6aR,10aR)-1-hydroxy-6,6,9-trimethyl-6a,7,10,10a-tetrahydro-6H-benzo[c]chromen-3-yl)cyclobutane carboxylate]	0.7 nM	0.4 nM	40 min	0.7 nM	–	–	–	–	–	–
CC1=CC[C@@H]2[C@@H](C1)c1c(O)cc(C(C)(C)C(=O)OCCCCN3CCOCC3)cc1OC2(C)C [Compound 1.24, 4-morpholinobutyl 2-((6aR,10aR)-1-hydroxy-6,6,9-trimethyl-6a,7,10,10a-tetrahydro-6H-benzo[c]chromen-3-yl)-2-methylpropanoate]	71.8 nM	39.9 nM	68 min	33.8 nM	–	–	–	–	–	–
CC1=CC[C@@H]2[C@@H](C1)c1c(O)cc(C(C)(C)C(=O)OCCCN3CCOCC3)cc1OC2(C)C [Compound 1.25, 3-morpholinopropyl 2-((6aR,10aR)-1-hydroxy-6,6,9-trimethyl-6a,7,10,10a-tetrahydro-6H-benzo[c]chromen-3-yl)-2-methylpropanoate]	–	–	200 min	–	10.4 nM	8.7 nM	15.2 nM	–	–	–
CC1=CC[C@@H]2[C@@H](C1)c1c(O)cc(CC(=O)OCCCCBr)cc1OC2(C)C [Compound 1.27, 4-bromobutyl-2-((6aR,10aR)-6a,7,10,10a-tetrahydro-1-hydroxy-6,6,9-trimethyl-6H-benzo[c]chromen-3-yl)acetate]	11.6 nM	7.1 nM	3 min	2.2 nM	–	–	–	–	–	–
CC1=CC[C@@H]2[C@@H](C1)c1c(O)cc(CC(=O)OCCCCC#N)cc1OC2(C)C [Compound 1.28, 4-cyanobutyl-2-((6aR,10aR)-6a,7,10,10a-tetrahydro-1-hydroxy-6,6,9-trimethyl-6H-benzo[c]chromen-3-yl)acetate]	2.1 nM	1.2 nM	4.8 min	14.3 nM	–	–	–	–	–	–
CCCCOC(=O)Cc1cc(O)c2c(c1)OC(C)(C)[C@@H]1CC=C(C)C[C@@H]21 [Compound 1.29, Butyl-2-((6aR,10aR)-6a,7,10,10a-tetrahydro-1-hydroxy-6,6,9-trimethyl-6H-benzo[c]chromen-3-yl)acetate]	27 nM	8.2 nM	5 min	40.3 nM	–	–	–	–	–	–
COC(=O)C(C)(C)c1cc(O)c2c(c1)OC(C)(C)[C@@H]1CC=C(C)C[C@@H]21 [Compound 1.34, Methyl-2-((6aR,10aR)-6a,7,10,10a-tetrahydro-1-hydroxy-6,6,9-trimethyl-6H-benzo[c]chromen-3-yl)-2-methylpropanoate]	34.5 nM	36.8 nM	60 min	83.1 nM	–	–	–	–	–	–
CCCCOC(=O)C(C)(C)c1cc(O)c2c(c1)OC(C)(C)[C@@H]1CC=C(CO)C[C@@H]21 [Compound 2.2, Butyl-2-((6aR,10aR)-6a,7,10,10a-tetrahydro-1-hydroxy-9-(hydroxymethyl)-6,6-dimethyl-6H-benzo[c]chromen-3-yl)-2-methylpropanoate]	1.5 nM	0.8 nM	5 min	0.6 nM	–	–	–	–	–	–
CC(C)(C(=O)OCCCCn1ccnc1)c1cc(O)c2c(c1)OC(C)(C)[C@@H]1CC=C(CO)C[C@@H]21 [Compound 2.3, 4-(1H-imidazol-1-yl)-butyl-2-((6aR,10aR)-6a,7,10,10a-tetrahydro-1-hydroxy-9-(hydroxymethyl)-6,6-dimethyl-6H-benzo[c]chromen-3-yl)-2-methylpropanoate]	11.6 nM	8.7 nM	120 min	25.3 nM	–	–	–	–	–	–
CCCCOC(=O)C(C)(C)c1cc(O)c2c(c1)OC(C)(C)[C@@H]1CC[C@@H](O)C[C@@H]21 [Compound 3.6, Butyl-2-((6aR,9R,10aR)-6a,7,8,9,10,10a-hexahydro-1,9-dihydroxy-6,6-dimethyl-6H-benzo[c]chromen-3-yl)-2-methylpropanoate]	0.2 nM	0.2 nM	3 min	0.1 nM	–	–	–	–	–	–
CCCCOC(=O)C(C)(C)c1cc(O)c2c(c1)OC(C)(C)[C@@H]1CC[C@H](O)C[C@@H]21 [Compound 3.8, Butyl-2-((6aR,9S,10aR)-6a,7,8,9,10,10a-hexahydro-1,9-dihydroxy-6,6-dimethyl-6H-benzo[c]chromen-3-yl)-2-methylpropanoate]	6.6 nM	4.5 nM	8 min	3.1 nM	–	–	–	–	–	–
CCCCCc1cc(O)c2c(c1)OC(C)(C)[C@@H]1CCC(C)=C[C@@H]21 [Dronabinol]	–	–	–	–	–	–	–	2 to 6 h	> 7	≥ 97%
CCCCCCC(C)(C)c1cc(O)c2c(c1)OC(C)(C)C1CCC(=O)CC21 (centres unmarked) [Nabilone]	–	–	–	–	–	–	–	–	> 7	≥ 97%
